Test results taken from patent publication US20250171459A1, “2-METHYL-4',5'-DIHYDROSPIRO[PIPERIDINE-4,7'-THIENO[2,3-C]PYRAN] DERIVATIVES AS INHIBITORS OF APOL1 AND METHODS OF USING SAME” (Vertex Pharmaceuticals Incorporated, priority 2022, published 2025).

Target: T1, APOL1 (Homo sapiens, UniProt O14791)
T1 sequence (O14791 1-398 S342G/I384M): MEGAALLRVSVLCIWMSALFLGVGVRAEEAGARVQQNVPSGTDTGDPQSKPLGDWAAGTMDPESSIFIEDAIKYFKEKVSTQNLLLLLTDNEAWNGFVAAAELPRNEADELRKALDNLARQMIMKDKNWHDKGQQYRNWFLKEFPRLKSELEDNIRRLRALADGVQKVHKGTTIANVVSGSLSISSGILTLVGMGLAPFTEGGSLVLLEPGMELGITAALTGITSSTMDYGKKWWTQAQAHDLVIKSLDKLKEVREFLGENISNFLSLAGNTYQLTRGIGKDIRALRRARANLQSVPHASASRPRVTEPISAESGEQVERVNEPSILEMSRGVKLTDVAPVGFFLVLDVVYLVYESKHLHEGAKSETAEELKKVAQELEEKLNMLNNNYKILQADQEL
Assay: MultiTox-Fluor Multiplex Cytotoxicity Assay in tet-inducible APOL1 T-REx-HEK293 cells (cell rescue, ratio of dead to live cells)
Assay type: cell-based
Details: tet-inducible transgenic APOL1 T-REx-HEK293 cell lines, 50 ng/mL tet, 24 hours; read-out: IP50 (i.e., IC50 for cell proliferation)
Summary of the method: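 T-REx-HEK293 cells with tet-inducible APOL1 were treated with compound (10 μM top, 10-point 3-fold dilution, duplicate) plus 50 ng/mL tetracycline for 24 h at 37° C, in DMEM with 2% tet-free FBS. MultiTox-Fluor protease signals gave a dead/live ratio, normalized to no tet (100% viability) and tet alone (0%).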

Row | SMILES | IC50
1 | CCc1cc2c(s1)CCO[C@@]21CCN(C[C@H]2C[C@@H](NS(=O)(=O)c3ccccc3)C2)[C@@H](C)C1 [Compound 397] | < 100 nM
2 | CCc1cc2c(s1)CCO[C@@]21CCN(CCC(F)(F)F)[C@@H](C)C1 [Compound 275] | 500 to 1000 nM
3 | CCc1cc2c(s1)CCO[C@@]21CCN(Cc2cn(C3(CO)COC3)nn2)[C@@H](C)C1 [Compound 147] | 500 to 1000 nM
4 | CCc1cc2c(s1)CCO[C@@]21CCN(Cc2cn(CC(C)(O)c3ccccc3)nn2)[C@@H](C)C1 (stereo partly drawn) [Compound 93] | 500 to 1000 nM
5 | CCc1cc2c(s1)CCO[C@@]21CCN(Cc2cn(CC(O)(CC)CCCO)nn2)[C@@H](C)C1 (stereo partly drawn) [Compound 169] | < 100 nM
6 | C[C@H]1C[C@@]2(CCN1Cc1cnn(CC(=O)NCC(F)F)c1)OCCc1c2sc(C(F)(F)F)c1CO [Compound 913] | < 100 nM
7 | CCc1cc2c(s1)CCO[C@@]21CCN(Cc2cn(Cc3nc(COC)no3)nn2)[C@@H](C)C1 [Compound 184] | < 100 nM
8 | CCc1cc2c(s1)CCO[C@@]21CCN(C[C@H]2C[C@@H](NC(=O)Oc3ccc(Cl)cc3)C2)[C@@H](C)C1 [Compound 382] | < 100 nM
9 | CCc1cc2c(s1)CCOC21CCN(Cc2cn(CCC(=O)NCC(C)O)nn2)CC1 (stereo not drawn) [Compound 1102] | 500 to 1000 nM
10 | CCc1cc2c(s1)CCO[C@@]21CCN(Cc2cn(CCO)nn2)[C@@H](C)C1 [Compound 154] | < 100 nM
11 | CCc1cc2c(s1)CCO[C@@]21CCN(CC2CN(C(=O)CNC(C)=O)C2)[C@@H](C)C1 [Compound 480] | 100 to 500 nM
12 | Cn1cc(CN2CCC3(CC2)OCCc2sc(C(F)(F)F)cc23)cn1 [Compound 1167] | 100 to 500 nM
13 | CCc1cc2c(s1)CCO[C@@]21CCN(CC2CN(C(=O)CC3CS(=O)(=O)C3)C2)[C@@H](C)C1 [Compound 450] | 100 to 500 nM
14 | C[C@H]1C[C@@]2(CCN1Cc1cnn(C)c1)OCC(O)(c1ccccc1)c1cc(Cl)sc12 (stereo partly drawn) [Compound 849, (2′S,7R)-2-chloro-2′-methyl-1′-[(1-methylpyrazol-4-yl)methyl]-4-phenyl-spiro[5H-thieno[2,3-c]pyran-7,4′-piperidine]-4-ol] | 100 to 500 nM
15 | CCc1cc2c(s1)CCO[C@@]21CCN(Cc2cn(-c3cncc(F)c3)nn2)[C@@H](C)C1 [Compound 71] | < 100 nM
16 | CCc1cc2c(s1)CCOC21CCN(Cc2cn(C(C)CC(N)=O)nn2)C(C)C1 (stereo not drawn) [Compound 148] | 100 to 500 nM
17 | C[C@H]1C[C@@]2(CCN1Cc1cnc(N3CCOCC3)nc1)OCCc1c2sc(Cl)c1CO [Compound 728] | < 100 nM
18 | CCc1cc2c(s1)CCO[C@@]21CCN(CC(F)F)[C@@H](C)C1 [Compound 294] | 500 to 1000 nM
19 | CCc1cc2c(s1)CCOC21CCN(Cc2cnc(NC(=O)COCCOC)s2)CC1 [Compound 1132] | 100 to 500 nM

Row | SMILES | IC50
20 | CCc1cc2c(s1)CCO[C@@]21CCN(Cc2cnc(N[C@H]3CCC[C@H]3CO)nc2)[C@@H](C)C1 [Compound 219] | < 100 nM
21 | C[C@H]1C[C@@]2(CCN1Cc1cn(CCS(C)(=O)=O)nn1)OCCc1sc(Cl)cc12 [Compound 511] | < 100 nM
22 | C[C@H]1C[C@@]2(CCN1Cc1cnn(CCS(C)(=O)=O)c1)OCC(C#N)c1cc(Cl)sc12 (stereo partly drawn) [Compound 856, (2′S, 7R)-2-chloro-2′-methyl-1′-[[1-(2-methylsulfonylethyl)pyrazol-4-yl]methyl]spiro[4,5-dihydrothieno[2,3-c]pyran-7,4′-piperidine]-4-carbonitrile] | < 100 nM
23 | CCc1cc2c(s1)CCOC21CCN(Cc2cn(CC3CCOCC3)nn2)CC1 [Compound 1113] | 500 to 1000 nM
24 | Cc1cc2c(s1)CCO[C@@]21CCN(CC(O)C(N)=O)[C@@H](C)C1 (stereo partly drawn) [Compound 503] | 100 to 500 nM
25 | CCc1cc2c(s1)CCO[C@@]21CCN(Cc2c[nH]nn2)[C@@H](C)C1 [Compound 8, (2′S,4R)-2-ethyl-2′-methyl-1′-(1H-triazol-4-ylmethyl)spiro[6,7-dihydrothieno[3,2-c]pyran-4,4′-piperidine]] | < 100 nM
26 | CCc1cc2c(s1)CCO[C@@]21CCN(CC2CN(C(=O)c3ccccc3)C2)[C@@H](C)C1 [Compound 431] | < 100 nM
27 | CCc1cc2c(s1)CCO[C@@]21CCN(CC2CN(C(=O)C(C)(C)C)C2)[C@@H](C)C1 [Compound 457] | 500 to 1000 nM
28 | C[C@H]1C[C@@]2(CCN1CC(O)C(F)(F)F)OCCc1cc(CC(F)F)sc12 (stereo partly drawn) [Compound 601] | < 100 nM
29 | C[C@H]1C[C@@]2(CCN1CCCO)OCCc1cc(CC(F)F)sc12 [Compound 615] | 100 to 500 nM
30 | C[C@H]1C[C@@]2(CCN1C[C@H]1C[C@@H](NS(=O)(=O)CC#N)C1)OCCc1cc(CC(F)F)sc12 [Compound 549, 1-cyano-N-((1R,3s)-3-(((2S,4R)-2′-(2,2-difluoroethyl)-2-methyl-4′,5′-dihydrospiro[piperidine-4,7′-thieno[2,3-c]pyran]-1-yl)methyl)cyclobutyl)methanesulfonamide] | < 100 nM
31 | CCc1cc2c(s1)CCO[C@@]21CCN(CC2CN(C(=O)CS(C)(=O)=O)C2)[C@@H](C)C1 [Compound 449] | 100 to 500 nM
32 | CCc1cc2c(s1)CCO[C@@]21CCN(C[C@H]2C[C@@H](NC(=O)C(O)C3CC3)C2)[C@@H](C)C1 (stereo partly drawn) [Compound 333] | < 100 nM
33 | CCc1cc2c(s1)CCO[C@@]21CCN(Cc2cn(C(CO)[C@H](C)O)nn2)[C@@H](C)C1 (stereo partly drawn) [Compound 193] | 500 to 1000 nM
34 | CCc1cc2c(s1)CCO[C@@]21CCN(CC2CN(C(=O)CN3CCOC3=O)C2)[C@@H](C)C1 [Compound 477] | < 100 nM
35 | C[C@H]1C[C@@]2(CCN1Cc1cn(CCS(C)(=O)=O)nn1)OCCc1c2sc(C(F)(F)F)c1C(=O)NCC(F)F [Compound 1009] | 500 to 1000 nM
36 | C[C@H]1C[C@@]2(CCN1CCO)OCCc1cc(CC(F)F)sc12 [Compound 599] | 100 to 500 nM
37 | CCc1cc2c(s1)CCO[C@@]21CCN(Cc2cn(CCn3ccnc3C)nn2)[C@@H](C)C1 [Compound 68] | 100 to 500 nM
38 | COCCn1cc(CN2CC[C@]3(C[C@@H]2C)OCCc2cc(Cl)sc23)cn1 [Compound 699, (2S,7R)-2′-chloro-1-((1-(2-methoxyethyl)-1H-pyrazol-4-yl)methyl)-2-methyl-4′,5′-dihydrospiro[piperidine-4,7′-thieno[2,3-c]pyran]] | < 100 nM

Row | SMILES | IC50
39 | CCc1cc2c(s1)CCO[C@@]21CCN(C[C@H]2C[C@@H](NC(=O)C(C)(C)N)C2)[C@@H](C)C1 [Compound 360] | 100 to 500 nM
40 | CC(O)c1c(C(F)(F)F)sc2c1CCO[C@@]21CCN(Cc2cnn(CCS(C)(=O)=O)c2)[C@@H](C)C1 (stereo partly drawn) [Compound 878] | < 100 nM
41 | CCc1cc2c(s1)CCO[C@@]21CCN(Cc2cn(CC(O)c3c(C)nn(C)c3C)nn2)[C@@H](C)C1 (stereo partly drawn) [Compound 189] | < 100 nM
42 | C[C@H]1C[C@@]2(CCN1Cc1cnc(NC(C)(C)CO)nc1)OCCc1sc(Cl)cc12 [Compound 515, 2-[[5-[[(2′S,4R)-2-chloro-2′-methyl-spiro[6,7-dihydrothieno[3,2-c]pyran-4,4′-piperidine]-1′-yl]methyl]pyrimidin-2-yl]amino]-2-methyl-propan-1-ol] | < 100 nM
43 | CCc1cc2c(s1)CCO[C@@]21CCN(Cc2cn(Cc3c(CO)cnc(C)c3O)nn2)[C@@H](C)C1 [Compound 39] | 100 to 500 nM
44 | CCc1cc2c(s1)CCO[C@@]21CCN(Cc2cn(CCS(=O)(=O)C(C)C)nn2)[C@@H](C)C1 [Compound 160] | < 100 nM
45 | CCc1cc2c(s1)CCOC21CCN(Cc2cn(C(C)c3nnc(C)o3)nn2)CC1 (stereo not drawn) [Compound 1101] | 500 to 1000 nM
46 | CCc1cc2c(s1)CCO[C@@]21CCN(Cc2ccc(NS(C)(=O)=O)cc2)[C@@H](C)C1 [Compound 274] | < 100 nM
47 | CCc1cc2c(s1)CCO[C@@]21CCN(Cc2cnc(NCC(O)C(F)(F)F)nc2)[C@@H](C)C1 (stereo partly drawn) [Compound 231] | 100 to 500 nM
48 | C[C@H]1C[C@@]2(CCN1Cc1ccc(NS(C)(=O)=O)cc1)OC[C@H](O)c1cc(Cl)sc12 [Compound 780] | < 100 nM
49 | CCc1cc2c(s1)CCO[C@@]21CCN(Cc2cn(C(C)(CO)CO)nn2)[C@@H](C)C1 [Compound 177] | 500 to 1000 nM
50 | C[C@H]1C[C@@]2(CCN1Cc1cnn(C[C@@H](O)C(=O)NC3CC3)c1)OC[C@@H](O)c1cc(C(F)(F)F)sc12 [Compound 995] | < 100 nM
51 | CCc1cc2c(s1)CCO[C@@]21CCN(C[C@H]2C[C@@H](NC(=O)C(C)(O)C(F)(F)F)C2)[C@@H](C)C1 (stereo partly drawn) [Compound 370] | 100 to 500 nM
52 | C[C@H]1C[C@@]2(CCN1Cc1cccc(OCC(N)=O)c1)OCCc1cc(Cl)sc12 [Compound 656] | 100 to 500 nM
53 | CCc1cc2c(s1)CCO[C@@]21CCN(Cc2cn(CCCO)nn2)[C@@H](C)C1 [Compound 153] | < 100 nM
54 | Cc1c[nH]c(=O)c(CN2CC[C@]3(C[C@@H]2C)OCCc2cc(CC(F)F)sc23)c1 [Compound 590] | 500 to 1000 nM
55 | C[C@H]1C[C@@]2(CCN1Cc1cnn(CCO)c1)OCCc1cc(CC(F)F)sc12 [Compound 563] | < 100 nM
56 | C[C@H]1C[C@@]2(CCN1Cc1cnn(CCS(C)(=O)=O)c1)OCC(O)c1cc(C(F)(F)F)sc12 (single isomer, unassigned) [Compound 882] | < 100 nM
57 | CCc1cc2c(s1)CCOC21CCN(Cc2csc(N3CCOCC3)n2)CC1 [Compound 1146] | 500 to 1000 nM
